Reference: PubChem BioAssay (NCI)
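Test compounds were applied to cells in 96-well plates for 48 hours at 5 doses. TGI denotes the concentration required for complete inhibition of growth.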

Experiments:
Test in all cases: inhibition of tumour cell growth, NCI panel, 48 h
SW-620 colon = test system: SW-620 colon
A549 NSCLC = test system: A549 NSCLC
HT29 colon = test system: HT29 colon
HCT-15 colon = test system: HCT-15 colon
DMS 114 small cell lung = test system: DMS 114 small cell lung
OVCAR-5 ovarian = test system: OVCAR-5 ovarian
DLD-1 colon = test system: DLD-1 colon
TK-10 renal = test system: TK-10 renal
RXF-631 renal = test system: RXF-631 renal
COLO 205 colon = test system: COLO 205 colon
SNB-75 CNS = test system: SNB-75 CNS
K-562 leukemia = test system: K-562 leukemia
ACHN renal = test system: ACHN renal
RXF 393 renal = test system: RXF 393 renal
OVCAR-4 ovarian = test system: OVCAR-4 ovarian
NCI-H23 lung = test system: NCI-H23 lung
HOP-62 NSCLC = test system: HOP-62 NSCLC
A498 renal = test system: A498 renal
OVCAR-8 ovarian = test system: OVCAR-8 ovarian
HOP-92 NSCLC = test system: HOP-92 NSCLC
786-0 renal = test system: 786-0 renal
LXFL 529 NSCLC = test system: LXFL 529 NSCLC
SK-MEL-5 melanoma = test system: SK-MEL-5 melanoma
NCI-H226 lung = test system: NCI-H226 lung
UACC-257 melanoma = test system: UACC-257 melanoma
KM12 colon = test system: KM12 colon
SK-OV-3 ovarian = test system: SK-OV-3 ovarian
OVCAR-3 ovarian = test system: OVCAR-3 ovarian
KM20L2 colon = test system: KM20L2 colon
SNB-78 CNS = test system: SNB-78 CNS
SF-295 CNS = test system: SF-295 CNS
SK-MEL-28 melanoma = test system: SK-MEL-28 melanoma
HCC-2998 colon = test system: HCC-2998 colon
SF-268 CNS = test system: SF-268 CNS
LOX IMVI melanoma = test system: LOX IMVI melanoma
UACC-62 melanoma = test system: UACC-62 melanoma
EKVX NSCLC = test system: EKVX NSCLC
DMS 273 small cell lung = test system: DMS 273 small cell lung
HOP-18 NSCLC = test system: HOP-18 NSCLC
U251 CNS = test system: U251 CNS
SK-MEL-2 melanoma = test system: SK-MEL-2 melanoma
NCI-H460 lung = test system: NCI-H460 lung
CCRF-CEM leukemia = test system: CCRF-CEM leukemia
HL-60(TB) leukemia = test system: HL-60(TB) leukemia
SNB-19 CNS = test system: SNB-19 CNS
MOLT-4 leukemia = test system: MOLT-4 leukemia
M19-MEL melanoma = test system: M19-MEL melanoma
SR leukemia = test system: SR leukemia
UO-31 renal = test system: UO-31 renal
M14 melanoma = test system: M14 melanoma
RPMI-8226 leukemia = test system: RPMI-8226 leukemia
CAKI-1 renal = test system: CAKI-1 renal
SF-539 CNS = test system: SF-539 CNS
MALME-3M melanoma = test system: MALME-3M melanoma
IGROV1 ovarian = test system: IGROV1 ovarian
XF 498 CNS = test system: XF 498 CNS
HCT-116 colon = test system: HCT-116 colon
SN12C renal = test system: SN12C renal

For `Cn1c(=O)cc2[nH]c3ccccc3n2c1=O`, the TGI (SW-620 colon) was 61.3 µM, the TGI (A549 NSCLC) was > 100 µM and the TGI (HT29 colon) was > 100 µM. For the same compound, the TGI (HCT-15 colon) was > 100 µM, the TGI (DMS 114 small cell lung) was > 100 µM and the TGI (OVCAR-5 ovarian) was > 100 µM. For the same compound, the TGI (DLD-1 colon) was > 100 µM, the TGI (TK-10 renal) was > 100 µM and the TGI (RXF-631 renal) was 86.5 µM. The TGI (COLO 205 colon) was 29.9 µM, the TGI (SNB-75 CNS) was > 100 µM and the TGI (K-562 leukemia) was > 100 µM. For the same compound, the TGI (ACHN renal) was > 100 µM, the TGI (RXF 393 renal) was 64.2 µM and the TGI (OVCAR-4 ovarian) was > 100 µM. For the same compound, the TGI (NCI-H23 lung) was > 100 µM, the TGI (HOP-62 NSCLC) was > 100 µM and the TGI (A498 renal) was > 100 µM. For the same compound, the TGI (OVCAR-8 ovarian) was > 100 µM, the TGI (HOP-92 NSCLC) was > 100 µM and the TGI (786-0 renal) was 62.9 µM. The TGI (LXFL 529 NSCLC) was > 100 µM, the TGI (SK-MEL-5 melanoma) was > 100 µM and the TGI (NCI-H226 lung) was > 100 µM. The TGI (UACC-257 melanoma) was > 100 µM, the TGI (KM12 colon) was > 100 µM and the TGI (SK-OV-3 ovarian) was > 100 µM. For the same compound, the TGI (OVCAR-3 ovarian) was > 100 µM, the TGI (KM20L2 colon) was > 100 µM and the TGI (SNB-78 CNS) was > 100 µM. For the same compound, the TGI (SF-295 CNS) was > 100 µM, the TGI (SK-MEL-28 melanoma) was > 100 µM and the TGI (HCC-2998 colon) was > 100 µM. The TGI (SF-268 CNS) was > 100 µM, the TGI (LOX IMVI melanoma) was 38.4 µM and the TGI (UACC-62 melanoma) was > 100 µM. The TGI (EKVX NSCLC) was > 100 µM, the TGI (DMS 273 small cell lung) was 45.3 µM and the TGI (HOP-18 NSCLC) was > 100 µM. The TGI (U251 CNS) was 31.2 µM, the TGI (SK-MEL-2 melanoma) was > 100 µM and the TGI (NCI-H460 lung) was > 100 µM. For the same compound, the TGI (CCRF-CEM leukemia) was > 100 µM, the TGI (HL-60(TB) leukemia) was > 100 µM and the TGI (SNB-19 CNS) was > 100 µM. The TGI (MOLT-4 leukemia) was > 100 µM, the TGI (M19-MEL melanoma) was > 100 µM and the TGI (SR leukemia) was > 100 µM. The TGI (UO-31 renal) was > 100 µM, the TGI (M14 melanoma) was > 100 µM and the TGI (RPMI-8226 leukemia) was > 100 µM. For the same compound, the TGI (CAKI-1 renal) was > 100 µM, the TGI (SF-539 CNS) was 46.3 µM and the TGI (MALME-3M melanoma) was > 100 µM. For the same compound, the TGI (IGROV1 ovarian) was > 100 µM.
In the case of `O=C(Nc1ccc(Cl)cc1C(=O)O)c1ccc([N+](=O)[O-])cc1`, the TGI (SW-620 colon) is reported as > 100 µM, the TGI (A549 NSCLC) is reported as > 100 µM and the TGI (HT29 colon) is reported as 40.7 µM. It also gave a TGI (HCT-15 colon) of 46.3 µM, a TGI (DMS 114 small cell lung) of 36.8 µM and a TGI (OVCAR-5 ovarian) of 55 µM. The TGI (DLD-1 colon) was 30.9 µM, the TGI (TK-10 renal) was 86.4 µM and the TGI (RXF-631 renal) was > 100 µM. The TGI (COLO 205 colon) was 39.4 µM, the TGI (SNB-75 CNS) was > 100 µM and the TGI (K-562 leukemia) was 90.4 µM. The TGI (ACHN renal) was 49.6 µM, the TGI (OVCAR-4 ovarian) was 47.1 µM and the TGI (HOP-62 NSCLC) was 39.2 µM. The TGI (A498 renal) was 27.2 µM, the TGI (OVCAR-8 ovarian) was > 100 µM and the TGI (HOP-92 NSCLC) was 22.6 µM. For the same compound, the TGI (786-0 renal) was 34.1 µM, the TGI (LXFL 529 NSCLC) was 48.7 µM and the TGI (SK-MEL-5 melanoma) was 48.7 µM. The TGI (NCI-H226 lung) was 72.2 µM, the TGI (UACC-257 melanoma) was 48 µM and the TGI (KM12 colon) was 36.2 µM. For the same compound, the TGI (SK-OV-3 ovarian) was 56.5 µM, the TGI (OVCAR-3 ovarian) was 56.6 µM and the TGI (KM20L2 colon) was 48.3 µM. For the same compound, the TGI (SNB-78 CNS) was 67.2 µM, the TGI (SF-295 CNS) was 51.1 µM and the TGI (SK-MEL-28 melanoma) was 97.2 µM. For the same compound, the TGI (HCC-2998 colon) was 39.6 µM, the TGI (SF-268 CNS) was > 100 µM and the TGI (LOX IMVI melanoma) was 37.6 µM. The TGI (UACC-62 melanoma) was 45.6 µM, the TGI (EKVX NSCLC) was 82.8 µM and the TGI (DMS 273 small cell lung) was 67.1 µM. It also gave a TGI (U251 CNS) of 51.1 µM, a TGI (SK-MEL-2 melanoma) of 16.9 µM and a TGI (XF 498 CNS) of 90.1 µM. The TGI (NCI-H460 lung) was 45.7 µM, the TGI (CCRF-CEM leukemia) was 67.4 µM and the TGI (HL-60(TB) leukemia) was 50.8 µM. The TGI (SNB-19 CNS) was > 100 µM, the TGI (MOLT-4 leukemia) was 61.7 µM and the TGI (M19-MEL melanoma) was 55.9 µM. The TGI (HCT-116 colon) was 36.9 µM, the TGI (SN12C renal) was > 100 µM and the TGI (UO-31 renal) was 44.1 µM. The TGI (M14 melanoma) was 60.8 µM, the TGI (RPMI-8226 leukemia) was 97.3 µM and the TGI (SF-539 CNS) was 37.5 µM. For the same compound, the TGI (MALME-3M melanoma) was 25.7 µM and the TGI (IGROV1 ovarian) was 45.5 µM.
